For assay [1], the system named is Mesangial cells. Description: Wrinkle assay: mesangial cells transfected with GFP, WT HSP20 or S16A-HSP20, on silicone rubber substrata. In kind it is cell-based. The following applies: dibutyryl cAMP 10 ΦM, 0-90 minutes. The method, then:
The experiment was performed in the following fashion: Mesangial cells were transfected with vectors containing green fluorescent protein (GFP) alone, GFP fused to the 5′ end of the wild type cDNA for HSP20 (WT), or GFP fused to an HSP20 construct in which the PKA phosphorylation site was mutated to an alanine (S16A-HSP20) (MUT). The cells were plated on a silicone rubber substrata in the presence of serum for 48 hours. The plates were then placed on the stage of a Zeiss Inverted Fluorescence Microscope with DeltaVision image acquisition and deconvolution software (Applied Precision, Issaquah, Wash.). The DeltaVision software was configured to eight different cells (x and y axis) on each plate with 7 z-axis images taken at […] intervals. Fluorescent and phase contrast images were obtained such that the cells and silicone membrane were imaged in close succession. During the scanning process, the z-axis of each cell was monitored to assure that the imaging stacks were maintained at the appropriate level as the cells relaxed on the silicone membrane. Baseline images were acquired for one hour. The cells were then treated with […] dibutyryl cAMP (10 ΦM) for 0 minutes, 30 minutes, 60 minutes, or 90 minutes, and the results are illustrated in FIG. 1. […]

Assay [2] relates to PKG transfected rat aortic smooth muscle cells. The assay can be described thus: Wrinkle assay: PKG transfected rat aortic smooth muscle cells on silicone substrata. In kind it is cell-based. The settings on record: 10 uM for 30 minutes. The method, then:
Rat aortic smooth muscle cells that are multiply passaged or that stably express PKG were cultured on a silicone substrata in the presence of serum. The cells were imaged with phase contrast microscopy (10× magnification). […] To determine if the wrinkles were reversible, PKG transfected cells were treated with dibutyryl cAMP (10 uM) for 30 minutes.

Assay [3] has as its system Mesangial cells. The assay can be described thus: Actin filament staining (rhodamine phalloidin) of transfected mesangial cells. In kind it is cell-based. The settings on record: 10 μM for 30 minutes; cells transfected with EGFP alone or S16A-HSP20. The source says:
Transfected mesangial cells were fixed and the actin filaments were stained with fluorescent-labeled phalloidin.

In assay [4] the test system is internal anal sphincter smooth muscles. Description: Muscle bath: human internal anal sphincter, tonic sustained contractions. The settings on record: 1 mM final concentration; after washout of sodium nitroprusside. From the text:
The internal anal sphincter was obtained from a human pathology specimen after an abdominal perineal resection for cancer. The smooth muscles were equilibrated in a muscle bath as described in example 6. The muscles developed tonic sustained contractions when warmed in the bicarbonate buffer. These contractions relaxed with the addition of the guanylate cyclase activator, sodium nitroprusside (SNP). When the sodium nitroprusside was washed out of the bath, the muscles again contracted spontaneously. The muscles were then treated with the PTD-phosphopeptide analogues of HSP20 (NH2-βAYARRAAARQARAWLRRAS*APLPGLK-COOH, 1 mM final concentration) (SEQ ID NO:307).

The test system of a further assay is porcine coronary artery. Description: Muscle bath: serotonin pre-contracted rings of porcine coronary artery, endothelium not denuded. The settings on record: cumulative doses added every 10 minutes; n=5; FIG. 4. The method, then:
Rings of porcine coronary artery in which the endothelium was not denuded, were suspended in a muscle bath containing bicarbonate buffer (120 mM NaCl, 4.7 mM KCl, 1.0 mM MgSO4, 1.0 mM NaH2PO4, 10 mM glucose, 1.5 mM CaCl2, and 25 mM […], pH 7.4), equilibrated with 95% O2/5% CO2, at 37° C. at one gram of tension for 2 hours. The muscles were pre-contracted with serotonin ([…] for 10 minutes) and cumulative doses of PTD-pHSP20 (NH2-βAYARRAAARQARAWLRRAS*APLPGLK-COOH, closed circles) (SEQ ID NO:307) or PTD-scrambled-pHSP20 (NH2-βAYARRAAARQARAPRKS*LWALGRPLA-COOH open circles) (SEQ ID NO:308) were added every 10 minutes (FIG. 4). The percentage of relaxation is depicted as a percentage of the maximal serotonin contraction (n=5, *=p<0.05 compared to 0 peptide added). The concentrations of peptide used are depicted on the x axis. Representative rings were treated with peptides (1 mM final concentration) linked to FITC (15 minutes at 37° C.), fixed in 4% paraformaldehyde and examined under fluorescence microscopy (40× magnification).

The test system of assay [5] is Bovine aortic endothelial cells. The assay can be described thus: Focal adhesion disassembly, interference reflection microscopy. In kind it is cell-based. The settings on record: HSP20 peptides 10 uM for 30 minutes; serum starved one hour. The method, then: Bovine aortic endothelial cells were plated on glass coverslips (80K-100K cells) in DMEM plus 10% FBS over night (24 wells plate). The cells were serum starved (no serum) for one hour and incubated in the presence of the peptide analogues of HSP20 [NH2-βAYARRAAARQARAWLRRAS*APLPGLK-COOH-pHSP20 (10 uM) (SEQ ID NO:307) or scrambled analogues of HSP20 [NH2-βAYARRAAARQARAPRKS*LWALGRPLA-COOH-scHSP20 (10 uM)] (SEQ ID NO:308) for 30 minutes. The cells were fixed with 3% glutaraldehyde and the number of focal adhesions was detected with interference reflection microscopy. The Hep I peptide was used as a positive control. This peptide binds to the heparin binding site of thrombospondin in induces focal adhesion disassembly. […] The results are illustrated in FIG. 7.

A further assay relates to human saphenous vein. The assay can be described thus: Intimal hyperplasia in cultured human saphenous vein segments, morphometric intimal area. The settings on record: 14 days; media with 30% fetal bovine serum; versus serum alone or scrambled analogue. The method, then: Segments of human saphenous vein were cultured in media containing 30% fetal bovine serum.
Assay [6] relates to Human saphenous vein smooth muscles. Description: Muscle bath: human saphenous vein rings, contraction in response to serotonin. The following applies: peptide in 7.5% dextran gel; serotonin 1 uM. The method, then:
Human saphenous vein was obtained from remnants that were discarded after vascular bypass operations. Rings of the saphenous vein were equilibrated in a muscle bath as described in experiment 4. The rings were treated with a 7.5% dextran gel alone, or a 7.5% dextran gel containing the phosphopeptide analogues of HSP20 (NH2-βAYARRAAARQARAWLRRAS*APLPGLK-COOH) (SEQ ID NO:307). The rings were then treated with serotonin (1 uM). The rings treated with the 7.5% dextran gel alone contracted in response to serotonin.

Assay [7] concerns Intestinal smooth muscle from the tinea coli. The assay can be described thus: Muscle bath: pig tinea coli, contractile response to carbachol. The settings on record: peptide in a dextran gel, 1 mM final concentration; then treated with carbachol. The method, then: Intestinal smooth muscle was obtained from the tinea coli of a pig. These muscles were equilibrated in a muscle bath as described in example 6. The muscles produced transient contractions in response to high extracellular potassium chloride (KCl 110 mM) and in response to carbachol (10^−6 M). The muscles were then treated with a dextran gel containing the PTD-phosphopeptide analogues of HSP20 (NH2-βAYARRAAARQARAWLRRAS*APLPGLK-COOH, 1 mM final concentration) (SEQ ID NO:307) and treated with carbachol.

Assay [8] has as its system A10 cells. Description: Boyden chamber migration assay. In kind it is cell-based.
In assay [9] the test system is corpra cavernosal smooth muscles. The assay can be described thus: Muscle bath: rabbit corpra cavernosal smooth muscle pre-contracted with norepinephrine. More on the design: species or system New Zealand White rabbits. The method, then: (§1) Tracheal and corpra cavernosal smooth muscles were obtained from a New Zealand White rabbits after sacrifice. The muscles were equilibrated in a muscle bath as described in example 6. The tracheal muscles were pre-contracted with carbachol and the corpra cavernosal smooth muscles were pre-contracted with norepinephrine. The muscles were then treated with the PTD-phosphopeptide analogues of HSP20 (NH2-βAYARRAAARQARAWLRRAS*APLPGLK-COOH) (SEQ ID NO:307).

The test system of assay [10] is A10 cells. Description: Serum-induced proliferation, cell counts. In kind it is cell-based. The settings on record: 50 μM in 10% FBS; 24 hours; serum starved 3 days beforehand. The method, then: A10 cells were serum starved for 3 days. The cells were then treated with media containing 10% fetal bovine serum, PTD-pHSP20 (NH2-βAYARRAAARQARAWLRRAS*APLPGLK-COOH (SEQ ID NO:307), or PTD-scrambled-pHSP20 (NH2-βAYARRAAARQARAPRKS*LWALGRPLA-COOH (SEQ ID NO:308) (50 μM). After 24 hours cell counts were performed. The number of cells per well in the serum starved plates averaged […] (+/−7.4) compared to 276+/−6.1 in wells containing 10% fetal bovine serum (FBS). In the presence of FBS, the phosphopeptide analogues of HSP20 containing a transduction domain inhibited of smooth muscle proliferation, 149+/−14.6 compared to transduction of the scrambled phosphopeptide analogue of HSP20 (242.3+/−15.3 cells/well). The results of these experiments are illustrated in FIG. 9.

Assay [11] deals with A10 cells. The assay can be described thus: Scratch wound migration assay. In kind it is cell-based. The following applies: 50 μM; 10% FBS media; 24 hours. The method, then: Confluent A10 cells were serum starved (0.5% fetal bovine serum, FBS) for 48 hours. A linear wound was made in the smooth muscle cell monolayer using a rubber scraper and the scratched edges were marked using metal pins.

The subject of the next assay is Tracheal smooth muscles. Description: Muscle bath: rabbit tracheal smooth muscle pre-contracted with carbachol. Further details: species or system New Zealand White rabbits. The method, then:
as §1

For the compound `CCCC(=O)Nc1ncnc2c1ncn2[C@@H]1O[C@@H]2COP(=O)(O)O[C@H]2[C@H]1OC(=O)CCC` [dibutyryl cAMP], the “wrinkles under the cells (relaxation)” value in the assay on Mesangial cells [1] (cells expressing S16A-HSP20 (MUT)) is “did not relax”; with Mesangial cells [1] (control cells expressing GFP), “relaxed over time”. Further, the wrinkle formation entry in assay [2] is “decrease in wrinkle formation”. Moreover, the “central actin stress fibers” value in the assay on Mesangial cells [3] was “loss of central actin stress fibers in EGFP but not S16A-HSP20 cells”.
On to “NH2-βAYARRAAARQARAWLRRAS*APLPGLK-COOH (AYARRAAARQARAWLRRASAPLPGLK; HELM PEPTIDE1{[bAla].Y.A.R.R.A.A.A.R.Q.A.R.A.W.L.R.R.A.[O=C([C@H](COP(=O)(O)O)N[*:1])[*:2]].A.P.L.P.G.L.K}$$$$V2.0; SMILES CC(C)C[C@H](NC(=O)CNC(=O)[C@@H]1CCCN1C(=O)[C@H](CC(C)C)NC(=O)[C@@H]1CCCN1C(=O)[C@H](C)NC(=O)[C@H](COP(=O)(O)O)NC(=O)[C@H](C)NC(=O)[C@H](CCCNC(=N)N)NC(=O)[C@H](CCCNC(=N)N)NC(=O)[C@H](CC(C)C)NC(=O)[C@H](Cc1c[nH]c2ccccc12)NC(=O)[C@H](C)NC(=O)[C@H](CCCNC(=N)N)NC(=O)[C@H](C)NC(=O)[C@H](CCC(N)=O)NC(=O)[C@H](CCCNC(=N)N)NC(=O)[C@H](C)NC(=O)[C@H](C)NC(=O)[C@H](C)NC(=O)[C@H](CCCNC(=N)N)NC(=O)[C@H](CCCNC(=N)N)NC(=O)[C@H](C)NC(=O)[C@H](Cc1ccc(O)cc1)NC(=O)CCN)C(=O)N[C@@H](CCCCN)C(=O)O) [PTD-pHSP20, Phosphopeptide analogue of HSP20 with a protein transduction domain different from TAT]”, for which the “relaxation of spontaneous tonic contraction” value in [4] is “relaxed and spasm was prevented”. Moreover, the “relaxation as percentage of the maximal serotonin contraction” value with porcine coronary artery was “relax and prevent spasm”. Further, the “focal adhesion disassembly (number of focal adhesions)” value in assay [5] is listed as “led to focal adhesion disassembly”. For the same compound, in the assay with human saphenous vein, the intimal area result is reported as “significant reduction in intimal area”. Further, the “contraction in response to serotonin” value in [6] was “did not contract”. Also, the “contractile response to carbachol” value in assay [7] is given as “significantly attenuated”. For the same compound, the “migration of A10 cells” value with A10 cells [8] is “inhibition of migration”. The “relaxation of pre-contracted muscle” value in assay [9] was “relaxed and spasm was prevented”; in the assay with Tracheal smooth muscles, “relaxed and spasm was prevented”. Also, the “number of cells per well” value in the assay with A10 cells [10] is on record as 149+/−14.6 cells/well. Further, the “number of cells migrating into a 1 cm^2 scratched area” value with A10 cells [11] is recorded as “inhibition of migration”.

(Values after patent US8044018B2, “Reagents and methods for smooth muscle therapies” (Arizona Board of Regents, priority 2008, dated 2011).)
